The text below walks through data of patent US20250179481A1, “COMPOSITIONS AND METHODS FOR TARGETING, EDITING, OR MODIFYING GENES” (Celyntra Therapeutics SA, priority 2021, published 2025).

Where only a bound is given, the exact number is not on record here.

The subject of series [1] is PDCD1 protein. The series can be described thus: Surface expression of the PDCD1 protein by flow cytometry in Jurkat cells. Particulars: flow cytometry 4, 7 and 11 days post-transfection, crPDCD1_2 value at day 4, same at day 11. The format is cell-based, human. How it is done:
For detection of PDCD1 knock-out efficiency, approx. 250,000 Jurkat cells per sample were transferred onto 96-well V-bottom cell culture plates and assessed following a series of consecutive washing and staining steps. The first step included centrifuging the cells at 300 g for 5 minutes at 4° C., and discarding the supernatant. Afterwards, the cells were stained using 100 μL Cell Staining Buffer (Biolegend) with APC/Cyanine7 anti-human CD279 (PD-1) antibody (1:100: Biolegend) and incubated for 30 minutes at 4° C., in the dark. The cells were then centrifuged at 300 g for 5 minutes at 4° C., and the supernatant discarded. The next step included two repeats of centrifugation at 300 g for 5 minutes at 4° C., supernatant removal, and cell washing in 150 μL ice-cold Cell Staining Buffer (Biolegend). In the final step, the cells were re-suspended in 100 μL Cell Staining Buffer for the flow cytometry measurements (excitation: red laser; emission: […]).
(§1) High-efficiency gNAs identified in our initial analysis were validated by assaying INDEL frequency for the top three or five gNAs for each of the selected immunologically relevant genes (FIG. 15). […] Alternating grey and white zones on the plot represent groups of three to five high-efficiency gNAs per locus. […] Using the CRISPresso2 software, the degree of open reading frame (ORF) disruption for each of the validated gNAs was estimated (FIG. 15). In addition, for four high-efficiency gNAs targeting three different exons at the PDCD1 locus, surface expression of the PDCD1 protein was measured by flow cytometry 4, 7, and 11 days post-transfection (data not shown).

The subject of series [2] is TIM3. The series can be described thus: gNA validation: frameshift (ORF disruption) frequency, TIM3. The class given is cell-based, human. Particulars: Jurkat, CRISPResso2 ORF analysis. On the procedure: Initial quality assessment of the obtained reads was performed with FastQC36. The sequencing data were aligned and analyzed with the CRISPResso2 software, using CRISPRessoBatch command with the parameters—cleavage_offset 1—quantification_window_size 10—quantification_window_center 1—expand_ambiguous_alignments for the INDEL frequency analysis. For the ORF disruption analysis, CRISPRessoBatch command with the parameters—cleavage_offset 1—coding_seq <EXON_SEQ>—quantification_window_size 0—quantification_window_center 1—expand_ambiguous_alignments was used. Modification rates from the CRISPResso2 software output were analyzed in Excel.
as §1
Average fraction of INDELs leading to frameshifts (dashed line) is approx. 66%. […]

In series [3] the test system is CSF2. The series can be described thus: Cutting efficiency by Amplicon-NGS in Jurkat cells, CSF2. The format is cell-based, human. From the text: (§2) T-cells were isolated […] buffy coats and nucleofected after two days. The buffy coats were procured from the Rigshospitalet in Copenhagen, Denmark. The Pan-T cells were enriched by negative selection using an Easy Sep Human T-cell Isolation Kit from StemCell Technologies. The RNPs were formed by mixing gRNAs with Art-Mad7mam+ prior to nucleofection with Jurkat or T-cells. In some cases, synthetic ssODNs (Table 11) with a length of 200 nt were included in the transfections to evaluate impact on frame shift mutation rates by HDR rather than relying on NHEJ alone in an effort to maximize functional disruption. The ssODNs were designed to comprise a deletion of the spacer and PAM sequence thereby resulting in a programmed frame shift. After transfection, the cells were cultivated and assayed for the different readouts. The nucleofection with dual gRNAs followed a similar protocol, but with minor differences in pre-assembling of the gRNAs. Briefly, the two dual RNAs (modulator and targeter) are combined in a molecular ratio of 1:1 (400 μM Modulator
At the genome level, Amplicon-NGS was used to determine the type and mutation frequency at the on-target site. The Amplicon-NGS assay is based on the amplification of the on-target site using specific primer pairs. […] Crispresso aligns the sequencing reads to the reference amplicon and analyzes the mutation type and frequency −/+10 nt at the putative cut site of Art-Mad7mam+ based on the provided gRNA sequence. […]
The cutting efficiency was calculated as the percentage of reads with any NHEJ modification (including insertions, deletions, and/or substitutions) of the total number of reads that were aligned to the reference amplicon. […]
The top gRNAs identified in the tiling experiments in, were further tested by performing additional nucleofections in Jurkat cells and measuring viability, INDEL formation by amplicon-NGS, and functional flow cytometry assays. […] For the Amplicon-NGS readout three days after transfection, genomic DNA was prepared, amplicons generated, and sequence analyzed. […]

In series [4] the test system is CSF2. As to the kind of experiment: Functional KO in Pan T-cells: intracellular CSF2 staining after PMA and Ionomycin. The format is cell-based, human. On the procedure:
Protein expression for targeted genes was measured by antibody staining against the target protein to quantify functional disruption of the target gene. The efficiency of functional disruption was verified by antibody staining and quantified as the negative cell population by flow cytometry. TRBC, CD3E and CD40LG are located at the cell surface and living cells were stained with the corresponding antibodies. Since CSF2 is a secreted protein, cells were first activated, secretion was blocked, cells were fixed with formaldehyde, and permeabilized before the staining procedure. Given CD40LG and CSF2 are expressed upon stimulation of primary T-cells, cells were activated first to enhance their expression. The induction of CD40LG and CSF2 was achieved using anti-CD3/CD28 and PMA/Ionomycin, respectively.
The best CSF2 gRNA was identified as gCSF2_007 in the Jurkat experiment. In Pan T-cells, the cutting efficiency was approximately 65% and 45% and could be increased by ssODN inclusion to ˜80 and 70% for the regular and STAR design, respectively (FIG. 33E). […] The cells were treated with PMA and Ionomycin to strongly activate the cells and blocked the secretion of the protein with Golgiplug and Golgistop and stained the cells after fixation and permeabilization for the intracellular accumulated CSF2 proteins.

Series [5] concerns CSF2. The series can be described thus: On-target Amplicon-NGS in Pan T-cells, CSF2. The format is cell-based, human.
Excerpt: as §2
(§3) At the genome level, Amplicon-NGS was used to determine the type and mutation frequency at the on-target site. The Amplicon-NGS assay is based on the amplification of the on-target site using specific primer pairs. The primers are designed to have the predicted cutting site at the center and a length of 180-280 nt. The amplicons are indexed for NGS and sequenced on an Illumina MiSeq system. The analysis was performed using the Crispresso script. Crispresso requires the input of a configuration file comprised of the specific gRNA sequence, primer sequences and the theoretical amplicon that is based on the alignment of the primer pair to the reference human genome GRCh38. In addition, for HDR analysis associated with ssODN-programmable editing a reference sequence with the specific mutations can be input into the configuration file. Crispresso aligns the sequencing reads to the reference amplicon and analyzes the mutation type and frequency −/+10 nt at the putative cut site of Art-Mad7mam+ based on the provided gRNA sequence. As output, Crispresso delivers different mutation types and their frequencies: Substitutions, INDELs, HDR Unmodified, HDR INDELs, HDR+substitutions.
(§4) To further test the effects of ssODNs, single and dual gRNAs were mixed with Art-MAD7mam+ nuclease, and in some cases included a ssODN designed to create a programmed disruption in the target gene. The freshly isolated Pan-T cells were activated and cultured for 2 days, and RNPs−/+ssODNs were transfected using the Lonza 96-well plate shuttle. […]

Series [6] concerns TRBC1 and TRBC2. The series can be described thus: On-target Amplicon-NGS in Pan T-cells, TRBC. The class given is cell-based, human.
Excerpt: as §2, §3, §4

The test system of series [7] is human genes. As to the kind of experiment: Editing efficiency of tested crRNAs / guide nucleic acids (Tables 7-10) detected in human cells. The format is cell-based. Particulars: tested crRNAs targeting human genes; target gene as given (Table 10).

Consider “crPDCD1_3: high-efficiency gNA targeting the PDCD1 locus (guide CAGTGGCGAGAGAAGACCCCG; spacer only, further chemistry not given here)”, for which the “surface expression of the PDCD1 protein” value in series [1] is 35%.

Turning to “crPDCD1_4: high-efficiency gNA targeting the PDCD1 locus (guide CTAGCGGAATGGGCACCTCAT; spacer only, further chemistry not given here)”, the “surface expression of the PDCD1 protein” value in series [1] worked out at 85%.

With “crPDCD1_5: high-efficiency gNA targeting the PDCD1 locus (guide GTGCTAAACTGGTACCGCATG; spacer only, further chemistry not given here)”, the “surface expression of the PDCD1 protein” value in series [1] was 85%.

Turning to “crTIM3_1: validated high-efficiency gNA, TIM3 (guide CTTGTAAGTAGTAGCAGCAGC; spacer only, further chemistry not given here)”, the “frameshifts frequency (fraction of frameshift to INDEL)” value in series [2] is on record as 23%.

With “crTIM3_3: validated high-efficiency gNA, TIM3 (guide TAAGTAGTAGCAGCAGCAGCA; spacer only, further chemistry not given here)”, the “frameshifts frequency (fraction of frameshift to INDEL)” value in series [2] is reported as 44%.

Regarding “gCSF2_007: best CSF2 gRNA; dual form Targeter_CSF2_007 UUGUAGAUCACAGGAGCCGACCUGCCUAC (synthetic gRNA ordered from IDT, chemistry not given here)”, the “Average on-target editing efficiency” value in series [3] (CSF2 gRNAs, Jurkat cells, Amplicon-NGS) is listed as 31.1. For the same substance, the Total score in series [3] (CSF2 gRNAs, combines on-target editing efficiency and predicted off-target score) was 30.7. Further, in series [3] (Jurkat verification), the “cutting efficiency (rank among the three CSF2 gRNAs)” value is “highest”. Also, the “negative CSF2 cell population” value is around 60% in series [4] (dual gRNA); around 80% in series [4] (dual gRNA with the ssODN); around 90% in series [4] (regular gRNA with the ssODN); around 75% in series [4] (regular gRNA, 70% of control cells CSF2 positive). In addition, the cutting efficiency was around 45% in series [5] (STAR design); around 70% in series [5] (STAR design, ssODN inclusion); “approximately 65%” in series [5] (regular design); around 80% in series [5] (regular design, ssODN inclusion).

“gTRBC1_2_003: gRNA targeting both TRBC1 and TRBC2; dual form Targeter_TRBC1_2_003 UUGUAGAUAGCCAUCAGAAGCAGAGAUCU (dual-guide targeter with IDT AltR2 3' modification, chemistry undefined, further chemistry not given here)”: the “lower INDEL frequency, dual vs regular configuration” value in series [6] is on record as around 5%. Also, the “perfect HDR rate” value in series [6] (inclusion of ssODNs) is given as around 40%. In series [6] (inclusion of ssODNs, all cases), the mutation rate is on record as above 90%. Also, the “INDEL frequency at the on-target site” value in series [6] (regular gRNA configuration) is given as around 90%.

As to “gTUBB_1 (guide AACCATGAGGGAAATCGTGCA; chemistry not given here)”, in series [7], the “% Indel” value was 2.61%.

“gTUBB_2 (guide ACCATGAGGGAAATCGTGCAC; chemistry not given here)”: the “% Indel” value in series [7] is reported as 68.4%.

“gTUBB_3 (guide TTCTCTGTAGGTGGCAAATAT; chemistry not given here)”: in series [7], the “% Indel” value is 18.67%.

For the substance “gU6_1 (guide GTCCTTTCCACAAGATATATA; chemistry not given here)”, the “% Indel” value in series [7] stood at 68.1%.

For the substance “gU6_2 (guide GATTTCTTGGCTTTATATATC; chemistry not given here)”, the “% Indel” value in series [7] was determined as 0.71%.

“gU6_3 (guide TTGGCTTTATATATCTTGTGG; chemistry not given here)”: in series [7], the “% Indel” value is reported as 2.83%.

On to “gU6_4 (guide GCTTTATATATCTTGTGGAAA; chemistry not given here)”, for which the “% Indel” value in series [7] is listed as 0.37%.

In the case of “gU6_5 (guide ATATATCTTGTGGAAAGGACG; chemistry not given here)”, the “% Indel” value in series [7] turned out to be 0.39%.

In the case of “gU6_6 (guide TATATCTTGTGGAAAGGACGA; chemistry not given here)”, the “% Indel” value in series [7] is given as 0.39%.

“gU6_7 (guide TGGAAAGGACGAAACACCGTG; chemistry not given here)”: the “% Indel” value in series [7] was 0.24%.
